Calls of active or inactive are those of the source. The rule behind the calls is not given here.
Assays:
A549/TR [1] = assay: Antiproliferative activity against human A549/TR cells at 1 uM after 72 hrs by MTT assay; type: functional
A549/TR [2] = assay: Antiproliferative activity against human A549/TR cells after 72 hrs by MTT assay; type: functional, cell-based
[3] = Resistant factor, ratio of IC50 for human A549/TR cells to IC50 for human A549 cells; type: functional
A549 = assay: cells; details: Homo sapiens, A549, 72 h
Description: Antiproliferative activity against human A549 cells after 72 hrs by MTT assay

A549/TR [4] = assay: Induction of nitric oxide production in human A549/TR cells at 50 uM after 6 hrs by Griess assay; type: functional, cell-based
MRC5 [5] = assay: Induction of nitric oxide production in human MRC5 cells at 50 uM after 6 hrs by Griess assay; type: cell-based; details: mrc5, 6 h
A549/TR [6] = assay: Induction of ROS generation in human A549/TR cells at 2.4 to 9.6 uM after 24 hrs by DCFH-DA dye-based flow cytometric analysis; type: functional, cell-based
A549/TR [7] = assay: Downregulation of Lon expression in human A549/TR cells at 4.8 uM after 24 hrs by Western blot analysis; type: functional, cell-based
A549/TR [8] = assay: Induction of apoptosis in human A549/TR cells assessed as viable cells at 1.2 uM after 24 hrs by Annexin-V-FITC/propidium iodide staining-based flow cytometric analysis (reference value: 95.1%); type: functional; details: read-out: Activity
A549/TR [9] = assay: Induction of apoptosis in human A549/TR cells assessed as early apoptotic cells at 1.2 uM after 24 hrs by Annexin-V-FITC/propidium iodide staining-based flow cytometric analysis (reference value: 3.42%); type: functional
A549/TR [10] = assay: Induction of apoptosis in human A549/TR cells assessed as late apoptotic cells at 1.2 uM after 24 hrs by Annexin-V-FITC/propidium iodide staining-based flow cytometric analysis (reference value: 1.24%); type: functional
A549/TR [11] = assay: Induction of apoptosis in human A549/TR cells assessed as necrotic cells at 1.2 uM after 24 hrs by Annexin-V-FITC/propidium iodide staining-based flow cytometric analysis (reference value: 0.22%); type: functional
A549/TR [12] = assay: Induction of apoptosis in human A549/TR cells assessed as viable cells at 2.4 uM after 24 hrs by Annexin-V-FITC/propidium iodide staining-based flow cytometric analysis (reference value: 95.1%); type: functional; details: read-out: Activity
A549/TR [13] = assay: Induction of apoptosis in human A549/TR cells assessed as early apoptotic cells at 2.4 uM after 24 hrs by Annexin-V-FITC/propidium iodide staining-based flow cytometric analysis (reference value: 3.42%); type: functional
A549/TR [14] = assay: Induction of apoptosis in human A549/TR cells assessed as late apoptotic cells at 2.4 uM after 24 hrs by Annexin-V-FITC/propidium iodide staining-based flow cytometric analysis (reference value: 1.24%); type: functional
A549/TR [15] = assay: Induction of apoptosis in human A549/TR cells assessed as necrotic cells at 2.4 uM after 24 hrs by Annexin-V-FITC/propidium iodide staining-based flow cytometric analysis (reference value: 0.22%); type: functional
A549/TR [16] = assay: Induction of apoptosis in human A549/TR cells assessed as viable cells at 4.8 uM after 24 hrs by Annexin-V-FITC/propidium iodide staining-based flow cytometric analysis (reference value: 95.1%); type: functional; details: read-out: Activity
A549/TR [17] = assay: Induction of apoptosis in human A549/TR cells assessed as early apoptotic cells at 4.8 uM after 24 hrs by Annexin-V-FITC/propidium iodide staining-based flow cytometric analysis (reference value: 3.42%); type: functional
A549/TR [18] = assay: Induction of apoptosis in human A549/TR cells assessed as late apoptotic cells at 4.8 uM after 24 hrs by Annexin-V-FITC/propidium iodide staining-based flow cytometric analysis (reference value: 1.24%); type: functional
A549/TR [19] = assay: Induction of apoptosis in human A549/TR cells assessed as necrotic cells at 4.8 uM after 24 hrs by Annexin-V-FITC/propidium iodide staining-based flow cytometric analysis (reference value: 0.22%); type: functional
A549/TR [20] = assay: Cell cycle arrest in human A549/TR cells assessed as accumulation at G0/G1 phase at 1.2 uM after 24 hrs by propidium iodide/RNase-staining based flow cytometric analysis (reference value: 62.5%); type: functional
A549/TR [21] = assay: Cell cycle arrest in human A549/TR cells assessed as accumulation at G2/M phase at 1.2 uM after 24 hrs by propidium iodide/RNase-staining based flow cytometric analysis (reference value: 24.7%); type: functional
A549/TR [22] = assay: Cell cycle arrest in human A549/TR cells assessed as accumulation at G0/G1 phase at 2.4 uM after 24 hrs by propidium iodide/RNase-staining based flow cytometric analysis (reference value: 62.5%); type: functional
A549/TR [23] = assay: Cell cycle arrest in human A549/TR cells assessed as accumulation at G2/M phase at 2.4 uM after 24 hrs by propidium iodide/RNase-staining based flow cytometric analysis (reference value: 24.7%); type: functional
A549/TR [24] = assay: Cell cycle arrest in human A549/TR cells assessed as accumulation at G0/G1 phase at 4.8 uM after 24 hrs by propidium iodide/RNase-staining based flow cytometric analysis (reference value: 62.5%); type: functional
A549/TR [25] = assay: Cell cycle arrest in human A549/TR cells assessed as accumulation at G2/M phase at 4.8 uM after 24 hrs by propidium iodide/RNase-staining based flow cytometric analysis (reference value: 24.7%); type: functional
A549/TR [26] = assay: Induction of ROS generation in human A549/TR cells after 24 hrs by DCFH-DA dye-based flow cytometric analysis; type: functional, cell-based
[27] = Potency index, ratio of taxol IC50 to compound IC50 for antiproliferative activity against human A549/TR cells; type: functional
MRC5 [28] = assay: Antiproliferative activity against human MRC5 cells after 72 hrs by MTT assay; type: cell-based; details: MRC5, 72 h
A549/TR [29] = assay: Growth inhibition of human A549/TR cells at 1 uM after 72 hrs in presence of GSTpi inhibitor etacrynic acid by MTT assay; type: functional
A549/TR [30] = assay: Growth inhibition of human A549/TR cells at 1 uM after 72 hrs in presence of ROS scavenger NAC by MTT assay; type: functional
A549/TR [31] = assay: Growth inhibition of human A549/TR cells at 1 uM after 72 hrs in presence of NO scavenger hemoglobin by MTT assay; type: functional
A549/TR [32] = assay: Downregulation of Lon expression in human A549/TR cells after 24 hrs by Western blot analysis; type: functional, cell-based
A549/TR [33] = assay: Induction of apoptosis in human A549/TR cells after 24 hrs by Annexin-V-FITC/propidium iodide staining-based flow cytometric analysis; type: functional, cell-based
A549/TR [34] = assay: Cell cycle arrest in human A549/TR cells after 24 hrs by propidium iodide/RNase-staining based flow cytometric analysis; type: functional

Structure (SMILES)	Activity (A549/TR [1])	IC50 (A549/TR [2])	Ratio IC50 [3]	IC50 (A549)	Activity (A549/TR [4])	Activity (MRC5 [5])	viability at 1.2 µM (A549/TR [8])	Activity (A549/TR [9])	Activity (A549/TR [10])	Activity (A549/TR [11])	viability at 2.4 µM (A549/TR [12])	Activity (A549/TR [13])	Activity (A549/TR [14])	Activity (A549/TR [15])	viability at 4.8 µM (A549/TR [16])	Activity (A549/TR [17])	Activity (A549/TR [18])	Activity (A549/TR [19])	Activity (A549/TR [20])	Activity (A549/TR [21])	other results
CN(CCO)/[N+]([O-])=N/Oc1cc(NCCOC(=O)[C@]23CCC(C)(C)C[C@H]2[C@H]2C(=O)C=C4[C@@]5(C)C=C(C#N)C(=O)C(C)(C)[C@@H]5CC[C@@]4(C)[C@]2(C)CC3)c([N+](=O)[O-])cc1[N+](=O)[O-]	>50%	820 nM	0.6	1440 nM																	
CCOC(=O)N1CCN(/[N+]([O-])=N/Oc2ccc([N+](=O)[O-])cc2[N+](=O)[O-])CC1		1990 nM	0.9	2310 nM	Active	Toxic	90.5%	6.75%	2.38%	0.34%	92.1%	5.63%	1.94%	0.37%	87%	7.76%	4.19%	1.04%	65.3%	24.5%	Activity (A549/TR [6]): Active; Activity (A549/TR [7]): Active; Activity (A549/TR [22]): 54.4%; Activity (A549/TR [23]): 32%; Activity (A549/TR [24]): 47.7%; Activity (A549/TR [25]): 38.7%
CC1(C)CC[C@]2(C(=O)N3CCN(c4cc(O/N=[N+](\[O-])N5CCOCC5)c([N+](=O)[O-])cc4[N+](=O)[O-])CC3)CC[C@]3(C)[C@H](C(=O)C=C4[C@@]5(C)C=C(C#N)C(=O)C(C)(C)[C@@H]5CC[C@]43C)[C@@H]2C1	>50%	941 nM	0.9	1080 nM																	
CN(CCO)/[N+]([O-])=N/Oc1cc(N2CCN(C(=O)[C@]34CCC(C)(C)C[C@H]3[C@H]3C(=O)C=C5[C@@]6(C)C=C(C#N)C(=O)C(C)(C)[C@@H]6CC[C@@]5(C)[C@]3(C)CC4)CC2)c([N+](=O)[O-])cc1[N+](=O)[O-]	>50%	349 nM	0.3	1070 nM	Active	Toxic	91.6%	5.11%	3.09%	0.27%	70%	12.8%	14.4%	2.78%	59.7%	15.8%	21.4%	3.15%	61.3%	28.3%	Activity (A549/TR [26]): Dose-dependent effect; Ratio IC50 [27]: 10; IC50 (MRC5 [28]): 1600 nM; growth inhibition (GI) (A549/TR [29]): inactive; growth inhibition (GI) (A549/TR [30]): inactive; growth inhibition (GI) (A549/TR [31]): inactive; Activity (A549/TR [32]): Dose-dependent effect; Activity (A549/TR [33]): Dose-dependent effect; Activity (A549/TR [22]): 47.9%; Activity (A549/TR [23]): 38.9%; Activity (A549/TR [24]): 39.4%; Activity (A549/TR [25]): 48.3%; Activity (A549/TR [34]): Dose-dependent effect
C[C@H](N)C(=O)OCCN(C)/[N+]([O-])=N/Oc1cc(NCCOC(=O)[C@]23CCC(C)(C)C[C@H]2[C@H]2C(=O)C=C4[C@@]5(C)C=C(C#N)C(=O)C(C)(C)[C@@H]5CC[C@@]4(C)[C@]2(C)CC3)c([N+](=O)[O-])cc1[N+](=O)[O-]	>50%	1090 nM	0.8	1440 nM																	
C[C@H](N)C(=O)OCCN(C)/[N+]([O-])=N/Oc1cc(N2CCN(C(=O)[C@]34CCC(C)(C)C[C@H]3[C@H]3C(=O)C=C5[C@@]6(C)C=C(C#N)C(=O)C(C)(C)[C@@H]6CC[C@@]5(C)[C@]3(C)CC4)CC2)c([N+](=O)[O-])cc1[N+](=O)[O-]	>50%	697 nM	0.7	1070 nM																	
COC(=O)[C@]12CCC(C)(C)C[C@H]1[C@H]1C(=O)C=C3[C@@]4(C)C=C(C#N)C(=O)C(C)(C)[C@@H]4CC[C@@]3(C)[C@]1(C)CC2 [BARDOXOLONE METHYL]		1700 nM	0.8	2070 nM	inactive	Non-Toxic	94.9%	4.06%	0.8%	0.14%	91.8%	6.14%	1.95%	0.13%	83.4%	7.36%	3.03%	0.17%	62.3%	24.9%	Activity (A549/TR [6]): Active; Activity (A549/TR [7]): Active; Activity (A549/TR [22]): 54.7%; Activity (A549/TR [23]): 32.1%; Activity (A549/TR [24]): 47.4%; Activity (A549/TR [25]): 39.4%
CC(=O)O[C@H]1C(=O)[C@@]2(C)[C@H]([C@H](OC(=O)c3ccccc3)[C@]3(O)C[C@H](OC(=O)[C@H](O)[C@@H](NC(=O)c4ccccc4)c4ccccc4)C(C)=C1C3(C)C)[C@]1(OC(C)=O)CO[C@@H]1C[C@@H]2O [PACLITAXEL]		3110 nM	445	7 nM																	

From ChEMBL document CHEMBL4196065, “Design and synthesis of new hybrids from 2-cyano-3,12-dioxooleana- 9-dien-28-oic acid and O2-(2,4-dinitrophenyl) diazeniumdiolate for intervention of drug-resistant lung cancer” (Eur J Med Chem, 2018)
